Results taken from PMC11062899, “De novo development of small cyclic peptides that are orally bioavailable” (Nature Chemical Biology, 2023).
Where “and” joins values, the source holds several entries; their conditions need not be identical. Identical values can stand only once.

What was measured:
porcine pancreatin = test: Peptide stability in simulated intestinal fluid (SIF); assay type: in vitro ADME; details: after 8 h vs 0 h (TIC); for SIF stability, Residual peptide Average: average of R1-R3; for SIF stability, Residual peptide: single replicates R1-R3
In short: (§1)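 Peptide from a 1 mM DMSO stock was added to fluid pre-warmed at 37 °C. SGF was pH 1.2 NaCl with porcine pepsin (0.32 g per 100 ml), and SIF was pH 6.8 potassium phosphate with porcine pancreatin (1 g per 100 ml). Supernatant peptide was quantified by LC–MS, with residual expressed as T1/T0.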

[1] = as above; assay type: in vitro ADME, porcine; details: simulated gi fluid; 8 h, 37 °C, pH 6.8; read-out: Proteolytic stability: SIF (8 h) % remaining
In short: as §1

porcine pepsin = molecular target: T1, porcine pepsin (Sus scrofa, UniProt P00791); test: Peptide stability in simulated gastric fluid (SGF); assay type: in vitro ADME; details: for SGF stability, Residual peptide Average / SGF stability, Residual peptide: after 8 h vs 0 h (TIC); for SGF stability, Residual peptide Average: average of R1-R3; for SGF stability, Residual peptide: single replicates R1-R3; for remaining at 8 h: simulated gi fluid, 37 °C, pH 1.2, read-out: Proteolytic stability: SGF (8 h) % remaining
T1 construct: 0.32 g of porcine pepsin (Sigma-Aldrich, P7125) was dissolved under gentle agitation; purchased Sigma-Aldrich P7125
In short: as §1

[2] = Passive artificial membrane permeability (PAMPA); details: for PAMPA permeability: % permeability: 50 μM, 12–18 h, acceptor concentration relative to equilibrium; for Papp at 50 μM / Permeability% Average / Permeability% R1 / Permeability% R3: PAMPA; for Papp at 50 μM: pH 7.4; for Permeability% Average: average of R1-R3; for Permeability% R1: replicate R1; for Permeability% R1 / Permeability% R3: TIC of top well sample relative to sample at theoretical equilibrium; for Permeability% R3: replicate R3
[3] = Metabolic stability in rat liver microsomes (RLMs); details: rat, microsomes
rat α-thrombin = molecular target: T2, rat α-thrombin (Rattus norvegicus, UniProt P18292); test: Protease inhibition, Ki for rat α-thrombin (fluorogenic substrate Z-Gly-Gly-Arg-AMC); assay type: biochemical; details: replicates R1-R3
T2 construct: rat α-thrombin (Molecular Innovations) were used at final concentrations of 2 nM and 3 nM; purchased Molecular Innovations
In short: (§2)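 Ki derived through Cheng–Prusoff from IC50s (four-parameter logistic fit) against activity of peptide-free controls. Product fluorescence was read every 3 min over 30 min at 25 °C, substrate Z-Gly-Gly-Arg-AMC at 50 μM. Enzyme was 2 nM human or 3 nM rat α-thrombin, pH 7.4 buffer.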

human α-thrombin = human α-thrombin (Homo sapiens, UniProt P00734); test: Protease inhibition, Ki for human α-thrombin (fluorogenic substrate Z-Gly-Gly-Arg-AMC); assay type: biochemical; details: replicates R1-R3
In short: as §2

[4] = CL (ul/min/mg protein) R1, RLM CL, replicate R1
[5] = CL (ul/min/mg protein) R2, RLM CL, replicate R2
[6] = CL (ul/min/mg protein) R3, RLM CL, replicate R3
[7] = Half Life (min) R1, RLM metabolic stability, replicate R1, 0-60 min
[8] = Half Life (min) R2, RLM metabolic stability, replicate R2, 0-60 min
[9] = Half Life (min) R3, RLM metabolic stability, replicate R3, 0-60 min
[10] = Metabolic stability: Half life T1/2 (min), RLMs, mean and SD, three measurements
[11] = Metabolic stability: RLM CL (ul/min/mg), RLMs, mean and SD, three measurements
[12] = peptide 1.33E+02 uM, slope of proteolytic substrate cleavage over time

T1 sequence (P00791 60-385): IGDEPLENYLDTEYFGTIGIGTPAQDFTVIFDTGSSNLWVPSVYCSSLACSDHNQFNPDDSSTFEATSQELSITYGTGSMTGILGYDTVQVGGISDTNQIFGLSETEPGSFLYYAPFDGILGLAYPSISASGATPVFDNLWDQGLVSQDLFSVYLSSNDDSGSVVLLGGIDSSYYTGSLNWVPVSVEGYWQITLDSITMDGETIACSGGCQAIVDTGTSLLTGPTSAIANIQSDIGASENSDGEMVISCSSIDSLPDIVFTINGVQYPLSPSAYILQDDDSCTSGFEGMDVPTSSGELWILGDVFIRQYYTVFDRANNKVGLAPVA

## O=C1NCCSCc2cccc(n2)CSCCC(=O)N2CCC[C@H]2C(=O)N2CCN(C(=O)c3ccc(Cl)s3)CC12 (some centres unmarked) [compound 23]
Porcine pancreatin
  SIF stability, Residual peptide Average: 91.31
  SIF stability, Residual peptide: 90.99 and 82.41 and 100.52
[1]
  remaining at 8 h: 91 ± 9%
Porcine pepsin
  SGF stability, Residual peptide Average: 98.66
  SGF stability, Residual peptide: 100.45 and 94.90 and 100.63
  remaining at 8 h: 99 ± 3%
[2]
  PAMPA permeability: % permeability: 63 ± 5%
  Papp at 50 μM: 6.46 ×10⁻⁶ cm/s
  Permeability% Average: 62.6%
  Permeability% R1: 59.23%
  Permeability% R3: 59.76%
[3]; [4]
  microsomal CLint: 73.8 µL/min/mg
[3]; [5]
  microsomal CLint: 70.2 µL/min/mg
[3]; [6]
  microsomal CLint: 77.1 µL/min/mg
[3]; [7]
  half-life: 18.8 min
[3]; [8]
  half-life: 19.7 min
[3]; [9]
  half-life: 18 min
[3]; [10]
  half-life: 18.8 ± 0.7 min
[3]; [11]
  microsomal CLint: 74 ± 3 µL/min/mg
Rat α-thrombin; [12]
  Rat alpha thrombin inhibition, slope normalized to DMSO: 2.4 and 2.8 and 19.0
Rat α-thrombin; peptide 1.67E+01 uM
  Rat alpha thrombin inhibition, slope normalized to DMSO: 12.7 and 12.2 and 32.4
Rat α-thrombin; peptide 2.08E+00 uM
  Rat alpha thrombin inhibition, slope normalized to DMSO: 50.5 and 50.4 and 69.3
Rat α-thrombin; peptide 3.33E+01 uM
  Rat alpha thrombin inhibition, slope normalized to DMSO: 7.4 and 6.9 and 24.6
Rat α-thrombin; peptide 4.17E+00 uM
  Rat alpha thrombin inhibition, slope normalized to DMSO: 35.4 and 36.2 and 53.3
Rat α-thrombin; peptide 6.67E+01 uM
  Rat alpha thrombin inhibition, slope normalized to DMSO: 5.7 and 4.4 and 22.7
Rat α-thrombin; peptide 8.33E+00 uM
  Rat alpha thrombin inhibition, slope normalized to DMSO: 23.3 and 24.4 and 38.9
Human α-thrombin; peptide 1.02E-03 uM
  Human alpha thrombin inhibition, slope normalized to DMSO: 91.9 and 90.1 and 93.2
Human α-thrombin; peptide 1.04E+00 uM
  Human alpha thrombin inhibition, slope normalized to DMSO: 79.8 and 81.1 and 79.3
Human α-thrombin; peptide 1.27E-04 uM
  Human alpha thrombin inhibition, slope normalized to DMSO: 96.4 and 91.3 and 88.2
Human α-thrombin; peptide 1.30E-01 uM
  Human alpha thrombin inhibition, slope normalized to DMSO: 96.0 and 91.0 and 92.0
Human α-thrombin; [12]
  Human alpha thrombin inhibition, slope normalized to DMSO: 8.4 and 8.5 and -2.6
Human α-thrombin; peptide 1.63E-02 uM
  Human alpha thrombin inhibition, slope normalized to DMSO: 97.2 and 84.3 and 96.8
Human α-thrombin; peptide 1.67E+01 uM
  Human alpha thrombin inhibition, slope normalized to DMSO: 30.4 and 33.6 and 42.3
Human α-thrombin; peptide 2.03E-03 uM
  Human alpha thrombin inhibition, slope normalized to DMSO: 97.8 and 93.0 and 96.6
Human α-thrombin; peptide 2.08E+00 uM
  Human alpha thrombin inhibition, slope normalized to DMSO: 73.0 and 70.9 and 73.9
Human α-thrombin; peptide 2.54E-04 uM
  Human alpha thrombin inhibition, slope normalized to DMSO: 99.0 and 94.8 and 97.2
Human α-thrombin; peptide 2.60E-01 uM
  Human alpha thrombin inhibition, slope normalized to DMSO: 91.4 and 88.4 and 89.4
Human α-thrombin; peptide 3.18E-05 uM
  Human alpha thrombin inhibition, slope normalized to DMSO: 91.8 and 117.4 and 98.4
Human α-thrombin; peptide 3.26E-02 uM
  Human alpha thrombin inhibition, slope normalized to DMSO: 94.8 and 91.6 and 96.2
Human α-thrombin; peptide 3.33E+01 uM
  Human alpha thrombin inhibition, slope normalized to DMSO: 18.0 and 18.8 and 20.4
Human α-thrombin; peptide 4.07E-03 uM
  Human alpha thrombin inhibition, slope normalized to DMSO: 93.4 and 91.5 and 94.8
Human α-thrombin; peptide 4.17E+00 uM
  Human alpha thrombin inhibition, slope normalized to DMSO: 59.5 and 58.3 and 61.9
Human α-thrombin; peptide 5.09E-04 uM
  Human alpha thrombin inhibition, slope normalized to DMSO: 97.5 and 92.8 and 99.8
Human α-thrombin; peptide 5.21E-01 uM
  Human alpha thrombin inhibition, slope normalized to DMSO: 87.6 and 85.1 and 86.8
Human α-thrombin; peptide 6.36E-05 uM
  Human alpha thrombin inhibition, slope normalized to DMSO: 100.5 and 90.1 and 98.6
Human α-thrombin; peptide 6.51E-02 uM
  Human alpha thrombin inhibition, slope normalized to DMSO: 92.5 and 91.3 and 93.7
Human α-thrombin; peptide 6.67E+01 uM
  Human alpha thrombin inhibition, slope normalized to DMSO: 11.3 and 18.5 and 12.0
Human α-thrombin; peptide 8.14E-03 uM
  Human alpha thrombin inhibition, slope normalized to DMSO: 94.9 and 92.1 and 95.9
Human α-thrombin; peptide 8.33E+00 uM
  Human alpha thrombin inhibition, slope normalized to DMSO: 50.4 and 48.8 and 50.8

## O=C1CCSCc2cccc(n2)CSCCNC(=O)C2CN(C(=O)c3ccc(Cl)s3)CCN2C(=O)[C@H](CO)N1 (some centres unmarked) [compound 24]
Porcine pancreatin
  SIF stability, Residual peptide Average: 94.64
  SIF stability, Residual peptide: 97.98 and 88.07 and 97.88
[1]
  remaining at 8 h: 95 ± 6%
Porcine pepsin
  SGF stability, Residual peptide Average: 99.25
  SGF stability, Residual peptide: 102.40 and 99.33 and 96.01
  remaining at 8 h: 99 ± 3%
[2]
  PAMPA permeability: % permeability: 2.0 ± 1.7%
  Papp at 50 μM: 0.049 ×10⁻⁶ cm/s
  Permeability% Average: 2.0%
  Permeability% R1: 0.0459%
  Permeability% R3: 3.39%
[3]; [4]
  microsomal CLint: 75.7 µL/min/mg
[3]; [5]
  microsomal CLint: 76.9 µL/min/mg
[3]; [6]
  microsomal CLint: 68.3 µL/min/mg
[3]; [7]
  half-life: 18.3 min
[3]; [8]
  half-life: 18 min
[3]; [9]
  half-life: 20.3 min
[3]; [10]
  half-life: 18.9 ± 1 min
[3]; [11]
  microsomal CLint: 74 ± 4 µL/min/mg
Rat α-thrombin; [12]
  Rat alpha thrombin inhibition, slope normalized to DMSO: 3.2 and 2.1 and 2.4
Rat α-thrombin; peptide 1.67E+01 uM
  Rat alpha thrombin inhibition, slope normalized to DMSO: 12.6 and 11.9 and 11.7
Rat α-thrombin; peptide 2.08E+00 uM
  Rat alpha thrombin inhibition, slope normalized to DMSO: 49.1 and 48.5 and 49.4
Rat α-thrombin; peptide 3.33E+01 uM
  Rat alpha thrombin inhibition, slope normalized to DMSO: 7.2 and 6.5 and 6.2
Rat α-thrombin; peptide 4.17E+00 uM
  Rat alpha thrombin inhibition, slope normalized to DMSO: 33.5 and 33.2 and 33.1
Rat α-thrombin; peptide 6.67E+01 uM
  Rat alpha thrombin inhibition, slope normalized to DMSO: 4.2 and 3.4 and 3.2
Rat α-thrombin; peptide 8.33E+00 uM
  Rat alpha thrombin inhibition, slope normalized to DMSO: 18.9 and 18.7 and 17.7
Human α-thrombin; peptide 1.02E-03 uM
  Human alpha thrombin inhibition, slope normalized to DMSO: 95.9 and 98.2 and 97.4
Human α-thrombin; peptide 1.04E+00 uM
  Human alpha thrombin inhibition, slope normalized to DMSO: 81.9 and 85.8 and 83.3
Human α-thrombin; peptide 1.27E-04 uM
  Human alpha thrombin inhibition, slope normalized to DMSO: 100.0
Human α-thrombin; peptide 1.30E-01 uM
  Human alpha thrombin inhibition, slope normalized to DMSO: 95.8 and 97.8
Human α-thrombin; [12]
  Human alpha thrombin inhibition, slope normalized to DMSO: 5.8 and 7.8 and 9.3
Human α-thrombin; peptide 1.63E-02 uM
  Human alpha thrombin inhibition, slope normalized to DMSO: 98.1 and 95.1
Human α-thrombin; peptide 1.67E+01 uM
  Human alpha thrombin inhibition, slope normalized to DMSO: 24.2 and 34.4 and 34.5
Human α-thrombin; peptide 2.03E-03 uM
  Human alpha thrombin inhibition, slope normalized to DMSO: 107.0
Human α-thrombin; peptide 2.08E+00 uM
  Human alpha thrombin inhibition, slope normalized to DMSO: 75.9 and 67.7 and 77.5
Human α-thrombin; peptide 2.54E-04 uM
  Human alpha thrombin inhibition, slope normalized to DMSO: 106.8 and 94.5 and 91.2
Human α-thrombin; peptide 2.60E-01 uM
  Human alpha thrombin inhibition, slope normalized to DMSO: 93.5 and 89.6 and 97.8
Human α-thrombin; peptide 3.18E-05 uM
  Human alpha thrombin inhibition, slope normalized to DMSO: 101.5 and 97.9 and 106.2
Human α-thrombin; peptide 3.26E-02 uM
  Human alpha thrombin inhibition, slope normalized to DMSO: 103.3 and 97.7 and 104.2
Human α-thrombin; peptide 3.33E+01 uM
  Human alpha thrombin inhibition, slope normalized to DMSO: 16.8 and 22.5 and 20.8
Human α-thrombin; peptide 4.07E-03 uM
  Human alpha thrombin inhibition, slope normalized to DMSO: 97.2 and 91.1
Human α-thrombin; peptide 4.17E+00 uM
  Human alpha thrombin inhibition, slope normalized to DMSO: 54.3 and 66.2 and 66.1
Human α-thrombin; peptide 5.09E-04 uM
  Human alpha thrombin inhibition, slope normalized to DMSO: 94.9 and 97.9
Human α-thrombin; peptide 5.21E-01 uM
  Human alpha thrombin inhibition, slope normalized to DMSO: 90.1 and 82.7 and 89.7
Human α-thrombin; peptide 6.36E-05 uM
  Human alpha thrombin inhibition, slope normalized to DMSO: 101.8 and 98.6 and 104.2
Human α-thrombin; peptide 6.51E-02 uM
  Human alpha thrombin inhibition, slope normalized to DMSO: 97.4 and 97.6
Human α-thrombin; peptide 6.67E+01 uM
  Human alpha thrombin inhibition, slope normalized to DMSO: 12.2 and 13.3 and 13.7
Human α-thrombin; peptide 8.14E-03 uM
  Human alpha thrombin inhibition, slope normalized to DMSO: 97.0 and 98.1 and 103.6
Human α-thrombin; peptide 8.33E+00 uM
  Human alpha thrombin inhibition, slope normalized to DMSO: 51.4 and 50.3 and 44.5
